Laboratory results published in US11357852B2, “Diglycosylated benzophenoxazine photosensitizer and preparation method and use thereof” (The Third Xiangya Hospital of Central South University, priority 2017, dated 2022).

Columns and labels:
Type in all cases: cell-based
C-myc = assay: Western Blot of C-myc expression in A-431 cells; settings: Western Blot (FIG. 6)
From the text: (§1) The Wnt signaling pathway mainly refers to a classic Wnt signaling pathway mediated by β-Catenin. In the absence of the Wnt signaling, GSK3β can add a phosphate group to the serine/threonine residue at the N-terminus of β-Catenin. The phosphorylated β-Catenin is covalently modified by β-TRCP ubiquitination and then degraded by a proteasome. […] Therefore, by measuring the phosphorylation statuses of GSK3β, β-Catenin and PP2A, we can directly understand whether the Wnt signaling is activated. C-myc and Cyclin D1 as protooncogenes can promote division and translation of the cells of cutaneous squamous cell carcinoma, and ultimately promote cell proliferation. By observing C-myc and Cyclin D1, we can clearly understand the inhibition effect of the photosensitizer of the present invention on proliferation of the A-431 cells. […]
(§2) A-431 cells at the logarithmic growth phase were digested with trypsin, and inoculated into a six-well culture plate, and cultured in a 5% CO2 incubator at 37° C. […] Respectively after 0.5 h and 16 h, the cells were collected to extract total protein, and the p-GSK3β, p-PP2A, p-β-catenin, C-myc, Cyclin D1 and β-Catenin in the cells were detected by the Western Blot method.

Cyclin D1 = assay: Western Blot of Cyclin D1 expression in A-431 cells; settings: Western Blot (FIG. 6)
From the text: as §1, §2

β-Catenin = assay: Western Blot of β-Catenin expression in A-431 cells; settings: Western Blot (FIG. 6)
From the text: as §1, §2

A-431 cells = assay: MTT method, proliferation of A-431 cells after photosensitizer and red light irradiation
Procedure: The MTT method is a method for detecting cell survival and growth. The detection principle of it is that a succinate dehydrogenase in mitochondria of living cells can reduce exogenous MTTs to water-insoluble blue-violet crystalline formazan and deposit the formazan in the cells, while dead cells have no such function. Dimethyl sulfoxide (DMSO) can dissolve the formazan in the cells, and the light absorbance value of it is measured at 490 nm wavelength with an enzyme-linked immunometric meter, which can indirectly reflect the number of living cells.
The cell line A-431 of cutaneous squamous cell carcinoma was cultured in a DMEM medium that contained 10% calf serum, added with […] of penicillin and 100 mg/L of streptomycin, and placed in a constant-temperature incubator at 37° C. and containing 5% CO2 for conventional culture. After the cells grew to confluence on the bottom of the flask, the medium was discarded, the cells were rinsed twice with a PBS solution, and then digested with 0.25% trypsin and 0.02% EDTA for 5 minutes, and then subcultured into flasks once every 2 to 3 days. The cells at the logarithmic growth phase were taken for experiment.
A-431 cells at the logarithmic growth phase were digested with trypsin, and inoculated into a six-well culture plate, and cultured in a 5% CO2 incubator at 37° C. When grew to the confluence of 80%-90%, the cells were respectively added with distilled water and 100 nM, 200 nM, 400 nM, 600 nM and 800 nM of the diglycosylated benzophenoxazine photosensitizer referred in the present invention. After incubation for 1 h, the cells were irradiated with 20 J/cm^2 of red light for 15 min. 16 h later, the survival and growth status of the cells were detected by the MTT method.

p-GSK3β = assay: Western Blot of GSK3β phosphorylation in A-431 cells; settings: 200 to 800 nM, 20 J/cm^2 red light 15 min, Western Blot (FIG. 5)
From the text: as §1, §2

p-PP2A = assay: Western Blot of PP2A phosphorylation in A-431 cells; settings: 200 to 800 nM, 20 J/cm^2 red light 15 min, Western Blot (FIG. 5)
From the text: as §1, §2

p-β-catenin = assay: Western Blot of β-catenin phosphorylation in A-431 cells; settings: 100 nM and 400 to 800 nM, 20 J/cm^2 red light 15 min, Western Blot (FIG. 5)
From the text: as §1, §2

`CCN(CC)CCC(C)(C[Se]N(CC)c1ccc2nc3c4ccccc4/c(=N\[Se]CC(C)(CN(CC)CC)ONC4C(O)C(O)C(CO)O[C@@H]4O)cc-3[se]c2c1)ONC1C(O)C(O)C(CO)O[C@@H]1O` (stereo partly drawn) was tested, and the “expression quantity of C-myc” value (C-myc; 100 to 400 nM) was “increased slightly”, the “expression quantity of C-myc” value (C-myc; 600 and 800 nM) was “significantly decreased” and the “expression quantity of Cyclin D1” value (Cyclin D1; 100 to 400 nM) was “increased slightly”. The “expression quantity of Cyclin D1” value (Cyclin D1; 600 and 800 nM) was “significantly decreased”, the “expression quantity of β-Catenin” value (β-Catenin; 100 to 400 nM) was “increased slightly” and the “expression quantity of β-Catenin” value (β-Catenin; 600 and 800 nM) was “significantly decreased”. For the same molecule, the “proliferation of A-431 cells” value (A-431 cells; 600 nM and 800 nM, concluded from Western Blot results (FIG. 6)) was “significantly inhibit”, the “proliferation of the A-431 cells” value (A-431 cells; 100-800 nM, inhibition increases with dose, 20 J/cm^2 red light 15 min, MTT 16 h later) was “significantly inhibit” and the inhibition at 0.8 µM (A-431 cells; Homo sapiens, light or radiation study, 800 nM, A-431 cells, incubation 1 h, 20 J/cm^2 red light 15 min, MTT 16 h later, read-out: proliferation inhibition effect) was 80%. For the same molecule, the “phosphorylation of GSK3β” value (p-GSK3β) was “significantly inhibit”, the “phosphorylation of PP2A” value (p-PP2A) was “significantly inhibit” and the “phosphorylation of β-catenin” value (p-β-catenin) was “significantly promote”.
